Test results from ChEMBL document CHEMBL5723584 (2023).

How the values were obtained:
[1] = target: Homeodomain-interacting protein kinase 4 (Homo sapiens, UniProt Q8NE63); assay: Promega NanoBRET (HIPK4)
[2] = target: ALK tyrosine kinase receptor (Homo sapiens) (UniProt Q9UM73); assay: activity of ALK(h) at 1.0 µM in the Eurofins Kinase panel; conditions: Compound concentration 1.0 uM
[3] = target: Activin receptor type-1-like (Homo sapiens) (UniProt P37023); assay: activity of ALK1(h) at 1.0 µM in the Eurofins Kinase panel; conditions: Compound concentration 1.0 uM
[4] = target: Activin receptor type-1 (Homo sapiens) (UniProt Q04771); assay: activity of ALK2(h) at 1.0 µM in the Eurofins Kinase panel; conditions: Compound concentration 1.0 uM
Sequence of Activin receptor type-1 (Homo sapiens) (Q04771 whole entry): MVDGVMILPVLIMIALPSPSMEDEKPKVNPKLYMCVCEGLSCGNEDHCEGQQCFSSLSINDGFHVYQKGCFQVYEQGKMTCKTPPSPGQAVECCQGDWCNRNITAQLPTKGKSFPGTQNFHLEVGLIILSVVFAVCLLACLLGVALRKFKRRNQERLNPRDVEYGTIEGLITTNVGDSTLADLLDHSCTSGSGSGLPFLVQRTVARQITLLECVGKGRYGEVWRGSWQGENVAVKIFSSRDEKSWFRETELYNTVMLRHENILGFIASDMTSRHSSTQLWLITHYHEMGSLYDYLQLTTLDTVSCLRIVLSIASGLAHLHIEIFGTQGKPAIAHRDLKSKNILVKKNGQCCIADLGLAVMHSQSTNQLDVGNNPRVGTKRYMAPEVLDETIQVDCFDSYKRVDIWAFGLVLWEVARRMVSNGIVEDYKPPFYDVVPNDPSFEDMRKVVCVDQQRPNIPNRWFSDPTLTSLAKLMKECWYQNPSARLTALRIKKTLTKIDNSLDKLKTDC

[5] = target: 5'-AMP-activated protein kinase catalytic subunit alpha-1 (Homo sapiens) (UniProt Q13131); assay: activity of AMPKalpha1(h) at 1.0 µM in the Eurofins Kinase panel; conditions: Compound concentration 1.0 uM
Sequence of 5'-AMP-activated protein kinase catalytic subunit alpha-1 (Homo sapiens) (Q13131 whole entry, looked up): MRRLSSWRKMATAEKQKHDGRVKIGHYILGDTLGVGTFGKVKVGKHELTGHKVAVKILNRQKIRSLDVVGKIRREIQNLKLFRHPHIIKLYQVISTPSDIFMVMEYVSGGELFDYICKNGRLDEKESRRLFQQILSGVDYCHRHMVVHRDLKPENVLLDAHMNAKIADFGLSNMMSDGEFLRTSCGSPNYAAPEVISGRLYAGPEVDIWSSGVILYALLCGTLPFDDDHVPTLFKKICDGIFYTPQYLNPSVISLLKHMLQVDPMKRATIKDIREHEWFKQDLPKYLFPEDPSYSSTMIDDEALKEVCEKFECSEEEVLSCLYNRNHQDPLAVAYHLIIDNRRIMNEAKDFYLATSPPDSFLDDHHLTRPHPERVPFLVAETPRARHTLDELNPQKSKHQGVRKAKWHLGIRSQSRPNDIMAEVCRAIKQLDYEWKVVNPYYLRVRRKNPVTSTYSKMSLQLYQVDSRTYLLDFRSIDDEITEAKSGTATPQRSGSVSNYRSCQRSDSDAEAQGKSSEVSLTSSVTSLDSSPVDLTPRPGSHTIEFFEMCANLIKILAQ

[6] = target: Mitogen-activated protein kinase kinase kinase 5 (Homo sapiens) (UniProt Q99683); assay: activity of ASK1(h) at 1.0 µM in the Eurofins Kinase panel; conditions: Compound concentration 1.0 uM
[7] = target: Calcium/calmodulin-dependent protein kinase type 1B (Homo sapiens) (UniProt Q6P2M8); assay: activity of CaMKIbeta(h) at 1.0 µM in the Eurofins Kinase panel; conditions: Compound concentration 1.0 uM
Sequence of Calcium/calmodulin-dependent protein kinase type 1B (Homo sapiens) (Q6P2M8 whole entry): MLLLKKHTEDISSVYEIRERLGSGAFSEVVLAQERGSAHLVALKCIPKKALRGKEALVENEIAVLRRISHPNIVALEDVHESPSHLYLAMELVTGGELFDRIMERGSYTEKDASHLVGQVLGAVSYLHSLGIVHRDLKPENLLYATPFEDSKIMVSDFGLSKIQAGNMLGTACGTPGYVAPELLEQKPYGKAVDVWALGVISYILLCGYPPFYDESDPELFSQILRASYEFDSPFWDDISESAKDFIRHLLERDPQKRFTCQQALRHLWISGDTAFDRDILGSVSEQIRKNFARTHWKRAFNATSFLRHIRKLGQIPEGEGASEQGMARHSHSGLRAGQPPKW

[8] = target: Calcium/calmodulin-dependent protein kinase kinase 1 (Homo sapiens) (UniProt Q8N5S9); assay: activity of CaMKK1(h) at 1.0 µM in the Eurofins Kinase panel; conditions: Compound concentration 1.0 uM
[9] = target: CDK12/Cyclin K (Homo sapiens) (UniProt O75909+Q9NYV4); assay: activity of CDK12/cyclinK(h) at 1.0 µM in the Eurofins Kinase panel; format: protein-complex assay; conditions: Compound concentration 1.0 uM
[10] = target: Cyclin-Y/Cyclin-dependent kinase 16 (Homo sapiens) (UniProt Q00536+Q8ND76); assay: activity of CDK16/cyclinY(h) at 1.0 µM in the Eurofins Kinase panel; format: protein-complex assay; conditions: Compound concentration 1.0 uM
[11] = target: CDK17/Cyclin-Y (Homo sapiens) (UniProt Q00537+Q8ND76); assay: activity of CDK17/cyclinY(h) at 1.0 µM in the Eurofins Kinase panel; format: protein-complex assay; conditions: Compound concentration 1.0 uM
[12] = target: Dual specificity tyrosine-phosphorylation-regulated kinase 2 (Homo sapiens) (UniProt Q92630); assay: activity of DYRK2(h) at 1.0 µM in the Eurofins Kinase panel; conditions: Compound concentration 1.0 uM
[13] = target: Eukaryotic elongation factor 2 kinase (Homo sapiens) (UniProt O00418); assay: activity of eEF-2K(h) at 1.0 µM in the Eurofins Kinase panel; conditions: Compound concentration 1.0 uM
Sequence of Eukaryotic elongation factor 2 kinase (Homo sapiens) (O00418 whole entry): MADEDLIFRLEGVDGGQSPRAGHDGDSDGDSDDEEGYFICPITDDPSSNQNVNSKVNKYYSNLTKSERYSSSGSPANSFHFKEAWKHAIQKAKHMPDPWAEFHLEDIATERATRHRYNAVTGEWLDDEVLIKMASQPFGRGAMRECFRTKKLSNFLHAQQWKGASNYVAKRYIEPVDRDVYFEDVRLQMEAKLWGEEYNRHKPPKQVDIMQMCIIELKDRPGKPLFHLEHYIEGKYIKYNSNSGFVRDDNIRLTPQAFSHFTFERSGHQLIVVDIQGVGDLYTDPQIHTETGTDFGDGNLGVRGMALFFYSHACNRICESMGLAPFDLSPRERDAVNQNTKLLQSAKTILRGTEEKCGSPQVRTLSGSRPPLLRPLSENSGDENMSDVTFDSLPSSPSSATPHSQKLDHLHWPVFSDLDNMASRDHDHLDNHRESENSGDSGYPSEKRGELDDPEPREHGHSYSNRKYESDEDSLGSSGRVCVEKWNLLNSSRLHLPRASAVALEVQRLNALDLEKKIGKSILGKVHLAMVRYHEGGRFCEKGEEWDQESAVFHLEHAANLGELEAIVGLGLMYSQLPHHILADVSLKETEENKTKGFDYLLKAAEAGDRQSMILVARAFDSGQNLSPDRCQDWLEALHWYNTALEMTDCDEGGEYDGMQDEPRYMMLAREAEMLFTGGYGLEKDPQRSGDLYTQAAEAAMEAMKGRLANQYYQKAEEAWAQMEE

[14] = target: Ephrin type-A receptor 1 (Homo sapiens) (UniProt P21709); assay: activity of EphA1(h) at 1.0 µM in the Eurofins Kinase panel; conditions: Compound concentration 1.0 uM
[15] = target: Ephrin type-A receptor 7 (Homo sapiens) (UniProt Q15375); assay: activity of EphA7(h) at 1.0 µM in the Eurofins Kinase panel; conditions: Compound concentration 1.0 uM
[16] = target: Fibroblast growth factor receptor 3 (Homo sapiens) (UniProt P22607); assay: activity of FGFR3(h) at 1.0 µM in the Eurofins Kinase panel; conditions: Compound concentration 1.0 uM
[17] = target: Rhodopsin kinase GRK1 (Homo sapiens) (UniProt Q15835); assay: activity of GRK1(h) at 1.0 µM in the Eurofins Kinase panel; conditions: Compound concentration 1.0 uM
Sequence of Rhodopsin kinase GRK1 (Homo sapiens) (Q15835 whole entry): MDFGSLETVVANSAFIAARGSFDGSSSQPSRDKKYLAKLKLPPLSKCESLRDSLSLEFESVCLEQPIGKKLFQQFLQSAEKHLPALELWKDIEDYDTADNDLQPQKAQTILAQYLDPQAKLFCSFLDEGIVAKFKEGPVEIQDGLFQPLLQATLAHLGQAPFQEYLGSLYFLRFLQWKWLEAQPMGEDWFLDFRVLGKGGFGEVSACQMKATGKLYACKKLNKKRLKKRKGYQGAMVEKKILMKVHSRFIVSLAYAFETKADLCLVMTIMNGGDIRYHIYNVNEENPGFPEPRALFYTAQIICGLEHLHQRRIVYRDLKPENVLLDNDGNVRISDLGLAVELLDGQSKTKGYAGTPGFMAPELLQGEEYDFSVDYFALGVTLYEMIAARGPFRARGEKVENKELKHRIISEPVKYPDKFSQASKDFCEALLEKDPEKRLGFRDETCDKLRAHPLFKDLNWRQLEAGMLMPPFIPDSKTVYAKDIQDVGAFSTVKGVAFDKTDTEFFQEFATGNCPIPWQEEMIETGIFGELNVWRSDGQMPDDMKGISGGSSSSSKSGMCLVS

[18] = target: Homeodomain-interacting protein kinase 2 (Homo sapiens) (UniProt Q9H2X6); assay: activity of HIPK2(h) at 1.0 µM in the Eurofins Kinase panel; conditions: Compound concentration 1.0 uM
Sequence of Homeodomain-interacting protein kinase 2 (Homo sapiens) (Q9H2X6 whole entry, looked up): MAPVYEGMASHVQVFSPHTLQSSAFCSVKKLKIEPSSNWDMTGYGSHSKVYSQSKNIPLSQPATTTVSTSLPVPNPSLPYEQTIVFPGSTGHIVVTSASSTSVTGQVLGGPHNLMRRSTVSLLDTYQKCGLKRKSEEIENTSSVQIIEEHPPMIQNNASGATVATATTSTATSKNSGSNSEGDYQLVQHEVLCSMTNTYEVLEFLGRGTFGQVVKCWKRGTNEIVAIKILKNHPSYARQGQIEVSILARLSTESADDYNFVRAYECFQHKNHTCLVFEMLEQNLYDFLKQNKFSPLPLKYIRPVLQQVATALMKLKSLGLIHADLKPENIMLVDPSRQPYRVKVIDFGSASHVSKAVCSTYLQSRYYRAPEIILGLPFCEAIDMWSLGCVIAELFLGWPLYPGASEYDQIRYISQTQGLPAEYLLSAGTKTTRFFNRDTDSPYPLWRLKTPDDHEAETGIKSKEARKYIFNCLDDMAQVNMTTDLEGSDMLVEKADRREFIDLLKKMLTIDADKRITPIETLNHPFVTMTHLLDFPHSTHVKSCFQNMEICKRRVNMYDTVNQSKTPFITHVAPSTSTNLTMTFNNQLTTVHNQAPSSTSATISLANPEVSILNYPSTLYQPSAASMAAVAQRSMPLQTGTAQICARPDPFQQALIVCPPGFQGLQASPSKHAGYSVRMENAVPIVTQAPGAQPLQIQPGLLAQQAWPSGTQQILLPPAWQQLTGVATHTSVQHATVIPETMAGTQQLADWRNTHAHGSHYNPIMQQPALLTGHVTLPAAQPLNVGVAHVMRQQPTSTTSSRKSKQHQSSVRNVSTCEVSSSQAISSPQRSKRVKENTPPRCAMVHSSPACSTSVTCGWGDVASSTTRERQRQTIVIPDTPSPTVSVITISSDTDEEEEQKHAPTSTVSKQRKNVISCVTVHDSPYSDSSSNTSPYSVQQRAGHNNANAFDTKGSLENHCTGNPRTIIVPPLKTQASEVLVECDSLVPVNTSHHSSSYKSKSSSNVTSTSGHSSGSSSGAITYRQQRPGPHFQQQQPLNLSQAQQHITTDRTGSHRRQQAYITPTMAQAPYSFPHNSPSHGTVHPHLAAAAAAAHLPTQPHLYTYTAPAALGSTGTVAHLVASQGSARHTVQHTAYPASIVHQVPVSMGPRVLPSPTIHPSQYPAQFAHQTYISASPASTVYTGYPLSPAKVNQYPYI

[19] = target: Mitogen-activated protein kinase kinase kinase kinase 1 (Homo sapiens) (UniProt Q92918); assay: activity of HPK1(h) at 1.0 µM in the Eurofins Kinase panel; conditions: Compound concentration 1.0 uM
[20] = target: Insulin-like growth factor 1 receptor (Homo sapiens) (UniProt P08069); assay: activity of IGF-1R(h) at 1.0 µM in the Eurofins Kinase panel; conditions: Compound concentration 1.0 uM
[21] = target: Vascular endothelial growth factor receptor 2 (Homo sapiens) (UniProt P35968); assay: activity of KDR(h) at 1.0 µM in the Eurofins Kinase panel; conditions: Compound concentration 1.0 uM
[22] = target: LIM domain kinase 1 (Homo sapiens) (UniProt P53667); assay: activity of LIMK1(h) at 1.0 µM in the Eurofins Kinase panel; conditions: Compound concentration 1.0 uM
[23] = target: LIM domain kinase 2 (Homo sapiens) (UniProt P53671); assay: activity of LIMK2(h) at 1.0 µM in the Eurofins Kinase panel; conditions: Compound concentration 1.0 uM
[24] = target: Leukocyte tyrosine kinase receptor (Homo sapiens) (UniProt P29376); assay: activity of LTK(h) at 1.0 µM in the Eurofins Kinase panel; conditions: Compound concentration 1.0 uM
[25] = target: Serine/threonine-protein kinase MAK (Homo sapiens) (UniProt P20794); assay: activity of MAK(h) at 1.0 µM in the Eurofins Kinase panel; conditions: Compound concentration 1.0 uM
[26] = target: Serine/threonine-protein kinase MARK1 (Homo sapiens) (UniProt Q9P0L2); assay: activity of MARK1(h) at 1.0 µM in the Eurofins Kinase panel; conditions: Compound concentration 1.0 uM
[27] = target: Myosin light chain kinase (Homo sapiens) (UniProt Q32MK0); assay: activity of MLCK(h) at 1.0 µM in the Eurofins Kinase panel; conditions: Compound concentration 1.0 uM
[28] = target: Serine/threonine-protein kinase MRCK alpha (Homo sapiens) (UniProt Q5VT25); assay: activity of MRCKalpha(h) at 1.0 µM in the Eurofins Kinase panel; conditions: Compound concentration 1.0 uM
[29] = target: SRSF protein kinase 3 (Homo sapiens) (UniProt Q9UPE1); assay: activity of MSSK1(h) at 1.0 µM in the Eurofins Kinase panel; conditions: Compound concentration 1.0 uM
[30] = target: Phosphatidylinositol 4,5-bisphosphate 3-kinase catalytic subunit gamma isoform (Homo sapiens) (UniProt P48736); assay: activity of PI3 Kinase (p120gamma)(h) at 1.0 µM in the Eurofins Kinase panel; conditions: Compound concentration 1.0 uM
[31] = target: cAMP-dependent protein kinase (PKA) (Homo sapiens) (UniProt P22694+P17612+P22612); assay: activity of PKA(h) at 1.0 µM in the Eurofins Kinase panel; format: protein assay; conditions: Compound concentration 1.0 uM
[32] = target: RAC-beta serine/threonine-protein kinase (Homo sapiens) (UniProt P31751); assay: activity of PKBbeta(h) at 1.0 µM in the Eurofins Kinase panel; conditions: Compound concentration 1.0 uM
[33] = target: Protein kinase C zeta type (Homo sapiens) (UniProt Q05513); assay: activity of PKCzeta(h) at 1.0 µM in the Eurofins Kinase panel; conditions: Compound concentration 1.0 uM
[34] = target: Tyrosine-protein kinase FRK (Homo sapiens) (UniProt P42685); assay: activity of PTK5(h) at 1.0 µM in the Eurofins Kinase panel; conditions: Compound concentration 1.0 uM
Sequence of Tyrosine-protein kinase FRK (Homo sapiens) (P42685 whole entry): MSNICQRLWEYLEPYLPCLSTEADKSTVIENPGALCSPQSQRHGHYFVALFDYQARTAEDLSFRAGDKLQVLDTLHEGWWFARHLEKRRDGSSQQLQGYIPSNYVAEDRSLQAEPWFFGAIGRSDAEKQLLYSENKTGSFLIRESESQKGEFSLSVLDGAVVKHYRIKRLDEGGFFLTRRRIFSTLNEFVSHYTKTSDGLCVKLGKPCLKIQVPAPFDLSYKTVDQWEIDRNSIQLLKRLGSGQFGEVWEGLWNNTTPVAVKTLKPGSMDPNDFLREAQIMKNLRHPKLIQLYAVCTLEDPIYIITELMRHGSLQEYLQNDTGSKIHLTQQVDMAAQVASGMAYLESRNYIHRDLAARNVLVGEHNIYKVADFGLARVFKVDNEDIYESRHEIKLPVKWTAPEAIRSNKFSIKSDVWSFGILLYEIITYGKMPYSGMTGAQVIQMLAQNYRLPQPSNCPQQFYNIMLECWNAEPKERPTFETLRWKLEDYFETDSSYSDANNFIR

[35] = target: Tyrosine-protein kinase SYK (Homo sapiens) (UniProt P43405); assay: activity of Syk(h) at 1.0 µM in the Eurofins Kinase panel; conditions: Compound concentration 1.0 uM
[36] = target: NT-3 growth factor receptor (Homo sapiens) (UniProt Q16288); assay: activity of TrkC(h) at 1.0 µM in the Eurofins Kinase panel; conditions: Compound concentration 1.0 uM
[37] = target: Wee1-like protein kinase (Homo sapiens) (UniProt P30291); assay: activity of Wee1(h) at 1.0 µM in the Eurofins Kinase panel; conditions: Compound concentration 1.0 uM
[38] = target: Serine/threonine-protein kinase WNK3 (Homo sapiens) (UniProt Q9BYP7); assay: activity of WNK3(h) at 1.0 µM in the Eurofins Kinase panel; conditions: Compound concentration 1.0 uM
[39] = target: Phosphorylase b kinase gamma catalytic chain, testis/liver isoform (Homo sapiens) (UniProt P15735); assay: activity of PhKgamma2(h) at 1.0 µM in the Eurofins Kinase panel; conditions: Compound concentration 1.0 uM
Sequence of Phosphorylase b kinase gamma catalytic chain, testis/liver isoform (Homo sapiens) (P15735 whole entry, looked up, canonical isoform): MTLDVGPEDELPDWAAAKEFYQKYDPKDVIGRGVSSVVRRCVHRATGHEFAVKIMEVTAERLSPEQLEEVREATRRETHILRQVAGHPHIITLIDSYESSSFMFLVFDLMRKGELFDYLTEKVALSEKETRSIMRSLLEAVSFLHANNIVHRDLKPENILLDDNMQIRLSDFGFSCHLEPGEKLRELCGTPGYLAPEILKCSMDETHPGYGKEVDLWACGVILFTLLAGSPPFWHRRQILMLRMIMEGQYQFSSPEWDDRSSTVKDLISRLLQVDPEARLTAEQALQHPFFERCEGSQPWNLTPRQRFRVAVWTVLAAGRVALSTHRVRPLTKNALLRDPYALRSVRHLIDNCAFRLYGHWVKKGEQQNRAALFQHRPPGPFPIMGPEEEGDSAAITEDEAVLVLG

Question: Which IC50 [1] does the source give for `Cc1cc2c(-c3ccc(NC(=O)[C@H](N)CC(C)(C)C)cc3C)ccnc2[nH]1` here?
Answer: > 10 µM (not active)

Question: And the activity [2]?
Answer: 77%

Question: What about the activity [3] of the same compound?
Answer: 94%

Question: What about the activity [4] of the same compound?
Answer: 122%

Question: And the activity [5]?
Answer: 120%

Question: And the activity [6]?
Answer: 100%

Question: What about the activity [7] of the same compound?
Answer: 85%

Question: And the activity [8]?
Answer: 89%

Question: What about the activity [9] of the same compound?
Answer: 89%

Question: And the activity [10]?
Answer: 98%

Question: What about the activity [11] of the same compound?
Answer: 108%

Question: And the activity [12]?
Answer: 101%

Question: And the activity [13]?
Answer: 92%

Question: And the activity [14]?
Answer: 92%

Question: What about the activity [15] of the same compound?
Answer: 114%

Question: And the activity [16]?
Answer: 86%

Question: And the activity [17]?
Answer: 86%

Question: What about the activity [18] of the same compound?
Answer: 105%

Question: What about the activity [19] of the same compound?
Answer: 73%

Question: What about the activity [20] of the same compound?
Answer: 98%

Question: And the activity [21]?
Answer: 78%

Question: And the activity [22]?
Answer: 70%

Question: What about the activity [23] of the same compound?
Answer: 72%

Question: And the activity [24]?
Answer: 97%

Question: And the activity [25]?
Answer: 120%

Question: What about the activity [26] of the same compound?
Answer: 106%

Question: What about the activity [27] of the same compound?
Answer: 98%

Question: And the activity [28]?
Answer: 94%

Question: What about the activity [29] of the same compound?
Answer: 134%

Question: What about the activity [30] of the same compound?
Answer: 105%

Question: What about the activity [31] of the same compound?
Answer: 109%

Question: And the activity [32]?
Answer: 109%

Question: And the activity [33]?
Answer: 88%

Question: And the activity [34]?
Answer: 90%

Question: What about the activity [35] of the same compound?
Answer: 66%

Question: And the activity [36]?
Answer: 86%

Question: What about the activity [37] of the same compound?
Answer: 94%

Question: What about the activity [38] of the same compound?
Answer: 85%

Question: What about the activity [39] of the same compound?
Answer: 98%
